# Tests used:
# [1] = test system: Rec1; assay: Antitumor activity against human REC1 cells assessed as cell growth inhibition treated for 10 to 15 days; assay type: functional; conditions: time 10-15 day
# [2] = test system: OAW-42; assay: Antitumor activity against human OAW-42 cells assessed as cell growth inhibition treated for 10 to 15 days; assay type: functional; conditions: time 10-15 day
# [3] = test system: NCI-H446; assay: Antitumor activity against human NCI-H446 cells assessed as cell growth inhibition treated for 10 to 15 days; assay type: functional; conditions: time 10-15 day
# [4] = test system: SNU1; assay: Antitumor activity against human SNU1 cells assessed as cell growth inhibition treated for 10 to 15 days; assay type: functional; conditions: time 10-15 day
# [5] = molecular target: CDK7/Cyclin H/MNAT1 (Homo sapiens) (UniProt P51946+P50613+P51948); assay: Inhibition of N-terminal GST-tagged full length human CDK7 (1 to 346 residues)/human CyclinH (1 to 323 residues)/human MAT1 (1 to 309 residues) expressed in baculovirus-infected Sf21 cells using CTD3 peptide as substrate at 1 uM in presence of ATP by Mobility shift assay
# [6] = molecular target: Tyrosine-protein kinase SYK (Homo sapiens) (UniProt P43405); assay: Inhibition of N-terminal GST-tagged full length human SYK (1 to 635 residues) expressed in baculovirus-infected Sf21 cells using Blk/Lyntide as substrate at 1 uM in presence of ATP by Mobility shift assay
# [7] = test system: VCaP; assay: Antitumor activity against human VCaP cells assessed as cell growth inhibition treated for 10 to 15 days; assay type: functional; conditions: time 10-15 day
# [8] = test system: ST486; assay: Antitumor activity against human ST486 cells assessed as cell growth inhibition treated for 10 to 15 days; assay type: functional; conditions: time 10-15 day
# [9] = test system: HL-60; assay: Antitumor activity against human HL-60 cells assessed as cell growth inhibition treated for 10 to 15 days; assay type: functional; conditions: time 10-15 day
# [10] = test system: NCI-H522; assay: Antitumor activity against human NCI-H522 cells assessed as cell growth inhibition treated for 10 to 15 days; assay type: functional; conditions: time 10-15 day
# [11] = test system: MOLM-14; assay: Antitumor activity against human MOLM-14 cells assessed as cell growth inhibition treated for 10 to 15 days; assay type: functional; conditions: time 10-15 day
# [12] = test system: HT1197; assay: Antitumor activity against human HT1197 cells assessed as cell growth inhibition treated for 10 to 15 days; assay type: functional; conditions: time 10-15 day
# [13] = test system: TOV112D; assay: Antitumor activity against human TOV112D cells assessed as cell growth inhibition treated for 10 to 15 days; assay type: functional; conditions: time 10-15 day
# [14] = Antitumor activity against human MJ cells assessed as cell growth inhibition treated for 10 to 15 days; assay type: functional; conditions: time 10-15 day
# [15] = test system: EB2; assay: Antitumor activity against human EB2 cells assessed as cell growth inhibition treated for 10 to 15 days; assay type: functional; conditions: time 10-15 day
# [16] = test system: MC116; assay: Antitumor activity against human MC116 cells assessed as cell growth inhibition treated for 10 to 15 days; assay type: functional; conditions: time 10-15 day
# [17] = test system: LS-411N; assay: Antitumor activity against human LS-411N cells assessed as cell growth inhibition treated for 10 to 15 days; assay type: functional; conditions: time 10-15 day
# [18] = test system: NALM-6; assay: Antitumor activity against human NALM-6 cells assessed as cell growth inhibition treated for 10 to 15 days; assay type: functional; conditions: time 10-15 day
# [19] = test system: MDA-MB-134-VI; assay: Antitumor activity against human MDA-MB-134-VI cells assessed as cell growth inhibition treated for 10 to 15 days; assay type: functional; conditions: time 10-15 day
# [20] = test system: MDA-MB-157; assay: Antitumor activity against human MDA-MB-157 cells assessed as cell growth inhibition treated for 10 to 15 days; assay type: functional; conditions: time 10-15 day
# [21] = molecular target: N-lysine methyltransferase KMT5A (Homo sapiens, UniProt Q9NQR1); assay: Inhibition of human SET8 using Nucleosomes and [3H]SAM as substrate incubated for 30 mins to 1 hr by HotSpot kinase assay
# Sequence of N-lysine methyltransferase KMT5A (Q9NQR1 whole entry): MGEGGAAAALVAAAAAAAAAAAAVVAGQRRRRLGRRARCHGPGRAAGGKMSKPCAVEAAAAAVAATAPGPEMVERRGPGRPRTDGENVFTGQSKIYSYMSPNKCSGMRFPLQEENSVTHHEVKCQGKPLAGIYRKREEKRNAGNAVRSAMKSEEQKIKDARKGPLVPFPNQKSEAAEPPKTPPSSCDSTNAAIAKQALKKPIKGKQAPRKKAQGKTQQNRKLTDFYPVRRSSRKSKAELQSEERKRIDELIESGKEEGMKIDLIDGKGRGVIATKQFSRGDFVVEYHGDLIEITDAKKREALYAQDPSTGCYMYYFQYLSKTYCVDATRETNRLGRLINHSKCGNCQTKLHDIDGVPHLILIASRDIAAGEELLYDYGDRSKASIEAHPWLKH
# [22] = Antitumor activity against human Kasumi-3 cells assessed as cell growth inhibition treated for 10 to 15 days; assay type: functional; conditions: time 10-15 day
# [23] = test system: HCC1143; assay: Antitumor activity against human HCC1143 cells assessed as cell growth inhibition treated for 10 to 15 days; assay type: functional; conditions: time 10-15 day
# [24] = test system: NCI-H1092; assay: Antitumor activity against human NCI-H1092 cells assessed as cell growth inhibition treated for 10 to 15 days; assay type: functional; conditions: time 10-15 day
# [25] = test system: U-266; assay: Antitumor activity against human U266B1 cells assessed as cell growth inhibition treated for 10 to 15 days; assay type: functional; conditions: time 10-15 day
# [26] = test system: T47D; assay: Antitumor activity against human T47D cells assessed as cell growth inhibition treated for 10 to 15 days; assay type: functional; conditions: time 10-15 day
# [27] = molecular target: DNA (cytosine-5)-methyltransferase 1 (Homo sapiens, UniProt P26358); assay: Inhibition of human DNMT1 using Poly (dl-dC) and [3H]SAM as substrate incubated for 30 mins to 1 hr by HotSpot kinase assay
# Sequence of DNA (cytosine-5)-methyltransferase 1 (P26358 whole entry): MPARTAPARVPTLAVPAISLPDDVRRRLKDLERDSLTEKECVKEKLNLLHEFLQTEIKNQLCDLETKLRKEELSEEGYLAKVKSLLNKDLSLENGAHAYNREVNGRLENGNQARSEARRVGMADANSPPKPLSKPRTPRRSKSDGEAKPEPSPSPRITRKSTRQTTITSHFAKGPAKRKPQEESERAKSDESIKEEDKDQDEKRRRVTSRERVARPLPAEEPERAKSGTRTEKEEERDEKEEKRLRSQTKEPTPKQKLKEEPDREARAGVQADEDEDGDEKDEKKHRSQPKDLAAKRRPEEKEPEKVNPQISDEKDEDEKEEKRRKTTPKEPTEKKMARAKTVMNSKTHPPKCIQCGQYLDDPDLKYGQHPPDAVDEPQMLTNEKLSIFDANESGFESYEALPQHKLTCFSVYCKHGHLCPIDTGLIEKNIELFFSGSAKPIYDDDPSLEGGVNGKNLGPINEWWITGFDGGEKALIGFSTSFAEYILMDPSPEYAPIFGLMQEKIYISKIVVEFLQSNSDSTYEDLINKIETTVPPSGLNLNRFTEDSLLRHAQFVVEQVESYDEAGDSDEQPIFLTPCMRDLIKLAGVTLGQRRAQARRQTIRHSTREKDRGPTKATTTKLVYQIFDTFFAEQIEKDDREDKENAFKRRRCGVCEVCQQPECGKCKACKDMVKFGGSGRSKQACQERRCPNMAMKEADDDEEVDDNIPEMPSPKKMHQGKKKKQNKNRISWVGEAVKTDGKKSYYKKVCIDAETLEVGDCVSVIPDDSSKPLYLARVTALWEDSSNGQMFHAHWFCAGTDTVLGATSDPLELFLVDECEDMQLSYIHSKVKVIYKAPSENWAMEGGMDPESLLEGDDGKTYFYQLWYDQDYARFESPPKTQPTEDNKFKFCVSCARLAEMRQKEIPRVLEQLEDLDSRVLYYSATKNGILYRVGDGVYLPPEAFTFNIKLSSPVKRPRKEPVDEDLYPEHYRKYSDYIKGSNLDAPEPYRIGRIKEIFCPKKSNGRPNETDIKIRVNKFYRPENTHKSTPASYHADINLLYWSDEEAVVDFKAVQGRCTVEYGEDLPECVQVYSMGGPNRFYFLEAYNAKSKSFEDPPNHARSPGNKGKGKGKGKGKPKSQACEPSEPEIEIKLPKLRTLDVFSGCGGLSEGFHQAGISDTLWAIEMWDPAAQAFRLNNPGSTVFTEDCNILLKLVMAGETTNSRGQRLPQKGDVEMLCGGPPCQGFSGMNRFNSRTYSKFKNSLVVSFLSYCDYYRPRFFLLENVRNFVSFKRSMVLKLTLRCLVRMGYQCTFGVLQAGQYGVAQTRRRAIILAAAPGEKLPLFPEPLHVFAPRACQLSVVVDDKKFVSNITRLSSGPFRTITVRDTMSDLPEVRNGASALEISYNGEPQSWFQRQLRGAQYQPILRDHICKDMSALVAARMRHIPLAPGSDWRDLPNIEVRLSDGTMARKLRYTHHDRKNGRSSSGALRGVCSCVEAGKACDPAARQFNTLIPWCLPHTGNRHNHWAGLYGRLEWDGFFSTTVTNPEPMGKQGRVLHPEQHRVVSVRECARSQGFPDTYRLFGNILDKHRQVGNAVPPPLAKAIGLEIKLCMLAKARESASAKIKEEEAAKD
# [28] = test system: MDA-MB-415; assay: Antitumor activity against human MDA-MB-415 cells assessed as cell growth inhibition treated for 10 to 15 days; assay type: functional; conditions: time 10-15 day
# [29] = test system: SNU-16; assay: Antitumor activity against human SNU-16 cells assessed as cell growth inhibition treated for 10 to 15 days; assay type: functional; conditions: time 10-15 day
# [30] = test system: AGS; assay: Antitumor activity against human AGS cells assessed as cell growth inhibition treated for 10 to 15 days; assay type: functional; conditions: time 10-15 day
# [31] = test system: SNU-449; assay: Antitumor activity against human SNU-449 cells assessed as cell growth inhibition treated for 10 to 15 days; assay type: functional; conditions: time 10-15 day
# [32] = test system: MC-CAR; assay: Antitumor activity against human MC-CAR cells assessed as cell growth inhibition treated for 10 to 15 days; assay type: functional; conditions: time 10-15 day
# [33] = test system: BT-474; assay: Antitumor activity against human BT-474 cells assessed as cell growth inhibition treated for 10 to 15 days; assay type: functional; conditions: time 10-15 day
# [34] = test system: MCF7; assay: Antitumor activity against human MCF7 cells assessed as cell growth inhibition treated for 10 to 15 days; assay type: functional; conditions: time 10-15 day
# [35] = test system: A204; assay: Antitumor activity against human A204 cells assessed as cell growth inhibition treated for 10 to 15 days; assay type: functional; conditions: time 10-15 day
# [36] = test system: TCC-SUP; assay: Antitumor activity against human TCC-SUP cells assessed as cell growth inhibition treated for 10 to 15 days; assay type: functional; conditions: time 10-15 day
# [37] = test system: CW-2; assay: Antitumor activity against human CW-2 cells assessed as cell growth inhibition treated for 10 to 15 days; assay type: functional; conditions: time 10-15 day
# [38] = Toxicity in Crl:CD Sprague-Dawley rat assessed as decrease of lymphocytes in thymus cortex at 100 mg/kg, po administered daily for 14 days by hematoxylin and eosin staining based analysis; assay type: organism-based; conditions: in vivo, 336 h, time 14 day
# [39] = Toxicity in Crl:CD Sprague-Dawley rat assessed as hemoglobin level in blood at 100 mg/kg, po administered daily for 14 days (reference value: 13.5 +/-0.386 g/dL); assay type: organism-based; conditions: in vivo, 336 h, time 14 day
# [40] = molecular target: Protein kinase C iota type (Homo sapiens) (UniProt P41743); assay: Inhibition of N-terminal GST-fused human full length PKC-iota (1 to 587 residues ) expressed in baculovirus expression system using PKC peptide as substrate at 1 uM in presence of ATP by Mobility shift assay
# Sequence of Protein kinase C iota type (Homo sapiens) (P41743 whole entry, the tested form may be a part): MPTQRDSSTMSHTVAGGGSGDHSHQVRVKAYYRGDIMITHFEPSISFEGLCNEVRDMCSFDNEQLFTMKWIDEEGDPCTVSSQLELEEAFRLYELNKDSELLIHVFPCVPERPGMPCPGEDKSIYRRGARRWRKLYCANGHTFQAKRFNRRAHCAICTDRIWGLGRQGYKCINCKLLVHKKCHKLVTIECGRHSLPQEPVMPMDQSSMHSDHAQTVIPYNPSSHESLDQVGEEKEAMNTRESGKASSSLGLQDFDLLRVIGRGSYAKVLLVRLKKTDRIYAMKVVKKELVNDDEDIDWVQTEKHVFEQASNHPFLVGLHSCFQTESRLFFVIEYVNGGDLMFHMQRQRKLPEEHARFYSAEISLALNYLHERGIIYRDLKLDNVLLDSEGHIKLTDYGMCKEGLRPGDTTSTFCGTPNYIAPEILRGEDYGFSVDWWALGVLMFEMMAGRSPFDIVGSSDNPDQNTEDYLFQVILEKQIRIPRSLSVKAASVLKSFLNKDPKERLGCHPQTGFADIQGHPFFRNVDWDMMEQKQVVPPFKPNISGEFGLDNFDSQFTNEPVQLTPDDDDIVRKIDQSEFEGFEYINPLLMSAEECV
# [41] = Toxicity in Crl:CD Sprague-Dawley rat assessed as white blood cell count in blood at 100 mg/kg, po administered daily for 14 days (reference value: 9.55+/-1.72 10^3/uL); assay type: organism-based; conditions: in vivo, 336 h, time 14 day
# [42] = Toxicity in Crl:CD Sprague-Dawley rat assessed as alkaline phosphatase level in blood at 100 mg/kg, po administered daily for 14 days (reference value: 1340+/-199 U/L); assay type: organism-based; conditions: in vivo, 336 h, time 14 day
# [43] = Toxicity in Crl:CD Sprague-Dawley rat assessed as aspartate aminotransferase level in blood at 100 mg/kg, po administered daily for 14 days (reference value: 72+/-5.03 U/L); assay type: organism-based; conditions: in vivo, 336 h, time 14 day
smiles,measurement,setting,value
Cc1cc(C)c(CNC(=O)c2cc(Cl)c3c(c2C)O[C@@](C)([C@H]2CC[C@H](N(C)C)CC2)O3)c(=O)[nH]1 [VALEMETOSTAT],GI50,[1],480 nM
same,GI50,[2],> 1000 nM
same,GI50,[3],124 nM
same,GI50,[4],> 1000 nM
same,inhibition,[5],-6.7%
same,inhibition,[6],-8.4%
same,GI50,[7],50.7 nM
same,GI50,[8],> 1000 nM
same,GI50,[9],> 1000 nM
same,GI50,[10],460 nM
same,GI50,[11],70 nM
same,GI50,[12],13.1 nM
same,GI50,[13],15.4 nM
same,GI50,[14],26 nM
same,GI50,[15],> 1000 nM
same,GI50,[16],50.4 nM
same,GI50,[17],> 1000 nM
same,GI50,[18],> 1000 nM
same,GI50,[19],> 1000 nM
same,GI50,[20],> 1000 nM
same,IC50,[21],100000 nM
same,GI50,[22],> 1000 nM
same,GI50,[23],> 1000 nM
same,GI50,[24],> 1000 nM
same,GI50,[25],6.88 nM
same,GI50,[26],> 1000 nM
same,IC50,[27],100000 nM
same,GI50,[28],24.7 nM
same,GI50,[29],> 1000 nM
same,GI50,[30],> 1000 nM
same,GI50,[31],> 1000 nM
same,GI50,[32],31.3 nM
same,GI50,[33],> 1000 nM
same,GI50,[34],> 1000 nM
same,GI50,[35],29.2 nM
same,GI50,[36],> 1000 nM
same,GI50,[37],> 1000 nM
Cc1cc(C)c(CNC(=O)c2cc(Br)c3c(c2C)O[C@@](C)([C@H]2CC[C@H](N(C)C)CC2)O3)c(=O)[nH]1,Activity,[38],Toxic
same,Activity,[39],13 g/dL
same,inhibition,[40],22.3%
same,Activity,[41],4.56 10^3 /uL
same,Activity,[42],1120 U/L
same,Activity,[43],71.8 U/L

# Source: ChEMBL document CHEMBL5647694, “Novel orally bioavailable EZH1/2 dual inhibitors with greater antitumor efficacy than an EZH2 selective inhibitor” (Cancer Sci, 2017)
